# Assay results reported in patent publication US5494895A, “Scorpion peptide margatoxin with immunosuppressant activity” (Merck & Co., Inc., priority 1993, dated 1996).
# Peptide text beside a SMILES is read from it.
# Legend:
# ISK = molecular target: T1, ISK (Rattus norvegicus, UniProt P15383); assay: Two-electrode voltage clamp of Xenopus oocytes expressing ISK; type: cell-based; conditions: 200 nM MgTX
# T1 construct: expressed in transfected cells; host or cells: Xenopus oocytes injected with RNA transcribed in vitro from the cDNA clone
# T1 sequence (P15383 whole entry): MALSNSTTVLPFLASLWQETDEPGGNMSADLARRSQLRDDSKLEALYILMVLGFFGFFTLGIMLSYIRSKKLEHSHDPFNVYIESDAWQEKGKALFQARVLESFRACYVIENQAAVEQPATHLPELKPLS
# T1 sequence (P70057 whole entry partner): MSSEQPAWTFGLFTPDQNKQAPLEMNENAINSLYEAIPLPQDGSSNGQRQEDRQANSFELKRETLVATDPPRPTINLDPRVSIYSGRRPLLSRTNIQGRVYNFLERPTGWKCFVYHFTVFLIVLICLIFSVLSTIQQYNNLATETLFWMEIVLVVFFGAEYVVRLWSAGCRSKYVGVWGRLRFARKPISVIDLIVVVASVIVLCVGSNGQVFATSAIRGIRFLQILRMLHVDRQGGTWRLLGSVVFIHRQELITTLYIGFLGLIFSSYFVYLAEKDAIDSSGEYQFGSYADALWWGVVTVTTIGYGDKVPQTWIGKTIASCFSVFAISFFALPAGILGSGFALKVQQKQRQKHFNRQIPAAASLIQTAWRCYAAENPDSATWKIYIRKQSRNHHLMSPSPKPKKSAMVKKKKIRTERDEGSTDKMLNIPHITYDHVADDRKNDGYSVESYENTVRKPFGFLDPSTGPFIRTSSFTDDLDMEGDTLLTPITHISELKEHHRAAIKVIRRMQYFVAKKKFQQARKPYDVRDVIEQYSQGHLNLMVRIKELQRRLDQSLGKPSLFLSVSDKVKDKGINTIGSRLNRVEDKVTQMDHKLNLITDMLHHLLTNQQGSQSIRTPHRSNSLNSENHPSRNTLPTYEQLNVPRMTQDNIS
# Description: (§1) Ionic currents were also recorded from Xenopus oocytes that had been injected with RNA transcribed in vitro from one or another of the following K^+ channel cDNA clones. Kv 1 (rat Kv 1.5), rat or human Kv 3 (rat Kv 1.3; human Kv 1.3), Kv 4 (rat Kv 3.1 ), rat ISK, Kv 2 (rat Kv 1.6) or Drosophila Shaker-H4. The names of the clones are listed as originally published, with the appropriate parenthetical designation according to the unified gene nomenclature proposed by Chandy. Shaker-H4 is a splice variant from the original Drosophila Shaker K^+ channel gene. Kv 1.3 is the ChTX-sensitive delayed rectifier current found in rat and human T lymphocytes (data from rat and human clones were indistinguishable and were combined) and it is a member of the Shaker family. Kv 1.5 is a channel cloned from rat (Swanson et al., Neuron, 4, 929, 1990) and is another member of the Shaker family. The Kv 1.5 transcript has been detected in pancreatic β cells as described in Philipson, et al., Proc. Natl. Acad. Sci. U.S.A. 88, 53, 1991. […] The ISK transcript has been detected in lymphocytes (Attali et al., J. Biol. Chem,. 267, 8650, 1992), but no evidence of the IKs current has been found in those cells.
# (§2) Methods for oocyte isolation and micro-injection were previously described in Goldin, Meth. […] Currents expressed in oocytes were measured using a DAGAN model CA-1 two-electrode voltage clamp. […]
# Maxi-K channel = molecular target: T2, Maxi-K channel (Bos taurus, UniProt Q28204); assay: [125I]ChTX binding to bovine aortic smooth muscle sarcolemmal membranes; conditions: concentrations up to 10 nM
# T2 construct: from tissue; host or cells: bovine aortic smooth muscle sarcolemmal membranes
# T2 sequence (Q28204 whole entry): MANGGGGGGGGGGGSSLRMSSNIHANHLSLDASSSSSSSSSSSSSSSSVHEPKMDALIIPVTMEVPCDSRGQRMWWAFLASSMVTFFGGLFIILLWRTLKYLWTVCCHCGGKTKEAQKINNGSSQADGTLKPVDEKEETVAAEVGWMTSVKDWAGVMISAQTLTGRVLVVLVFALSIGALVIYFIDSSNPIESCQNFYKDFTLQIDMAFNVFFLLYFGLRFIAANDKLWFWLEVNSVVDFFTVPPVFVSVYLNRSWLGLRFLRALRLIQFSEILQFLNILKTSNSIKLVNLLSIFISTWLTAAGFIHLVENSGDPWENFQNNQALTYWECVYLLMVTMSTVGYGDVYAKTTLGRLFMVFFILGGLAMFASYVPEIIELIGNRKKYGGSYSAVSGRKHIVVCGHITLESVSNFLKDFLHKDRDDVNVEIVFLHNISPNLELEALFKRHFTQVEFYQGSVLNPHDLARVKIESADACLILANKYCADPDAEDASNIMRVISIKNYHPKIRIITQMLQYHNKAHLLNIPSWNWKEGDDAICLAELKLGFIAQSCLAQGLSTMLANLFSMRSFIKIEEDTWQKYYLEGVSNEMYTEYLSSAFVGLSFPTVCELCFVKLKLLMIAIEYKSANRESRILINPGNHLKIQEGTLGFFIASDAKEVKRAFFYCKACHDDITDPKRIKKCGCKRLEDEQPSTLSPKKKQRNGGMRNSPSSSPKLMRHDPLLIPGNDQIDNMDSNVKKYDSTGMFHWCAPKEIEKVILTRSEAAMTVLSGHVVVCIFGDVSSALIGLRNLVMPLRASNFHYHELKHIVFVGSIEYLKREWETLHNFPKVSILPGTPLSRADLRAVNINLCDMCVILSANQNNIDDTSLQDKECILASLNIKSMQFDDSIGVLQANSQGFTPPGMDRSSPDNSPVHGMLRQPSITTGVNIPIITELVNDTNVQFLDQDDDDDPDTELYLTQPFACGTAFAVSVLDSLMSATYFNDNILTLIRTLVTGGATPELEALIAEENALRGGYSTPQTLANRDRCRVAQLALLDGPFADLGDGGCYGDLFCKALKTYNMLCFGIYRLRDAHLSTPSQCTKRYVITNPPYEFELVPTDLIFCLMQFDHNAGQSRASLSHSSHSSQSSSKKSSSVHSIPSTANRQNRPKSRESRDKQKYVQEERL
# T2 sequence (Q28067 whole entry partner): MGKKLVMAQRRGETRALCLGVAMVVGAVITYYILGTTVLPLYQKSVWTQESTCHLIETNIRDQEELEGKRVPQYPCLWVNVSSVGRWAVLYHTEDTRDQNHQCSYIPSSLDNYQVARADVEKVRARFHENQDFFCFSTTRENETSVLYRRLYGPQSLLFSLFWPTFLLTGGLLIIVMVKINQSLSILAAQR
# Description: The potency of MgTX as an inhibitor of [^125 I]ChTX binding to Kv 1.3 was evaluated. The binding of [^125 I]ChTX to either rat brain synaptic plasma membrane vesicles (Kv 1.3 channel; Vazquez et al., J. Biol. Chem. 265, 15564, 1990) or bovine aortic smooth muscle sarcolemmal membranes (Maxi-K channel; Vazquez et al., J. Biol. Chem. 264, 20402, 1989) was determined as described. Briefly, membrane vesicles were incubated with [^125 I]ChTX in the presence or absence of other added agents, until equilibrium was achieved. Separation of bound from free ligand was accomplished by filtration through GF/C glass fiber filters (WHATMAN) that had been presoaked in 0.5% polyethyleneimine. Nonspecific binding was determined in the presence of 10 nM unlabeled ChTX. Data from saturation experiments were analyzed in a Scatchard representation to determine Kd and Bmax values. Triplicate samples were obtained for each experimental point and the data were averaged. The standard deviation of the mean was typically less than 2%. […] As an indication of selectivity, MgTX had no effect on [^125 I]ChTX binding to the Maxi-K channel in smooth muscle membranes at concentrations up to 10 nM.
# Kv 1.6 = molecular target: T3, Kv 1.6 (Rattus norvegicus, UniProt P17659); assay: Two-electrode voltage clamp of Xenopus oocytes expressing Kv 2 (Kv 1.6); type: cell-based; conditions: read-out: concentration at which Kv 1.6 was half blocked
# T3 construct: expressed in transfected cells; host or cells: Xenopus oocytes injected with RNA transcribed in vitro from the cDNA clone
# T3 sequence (P17659 whole entry): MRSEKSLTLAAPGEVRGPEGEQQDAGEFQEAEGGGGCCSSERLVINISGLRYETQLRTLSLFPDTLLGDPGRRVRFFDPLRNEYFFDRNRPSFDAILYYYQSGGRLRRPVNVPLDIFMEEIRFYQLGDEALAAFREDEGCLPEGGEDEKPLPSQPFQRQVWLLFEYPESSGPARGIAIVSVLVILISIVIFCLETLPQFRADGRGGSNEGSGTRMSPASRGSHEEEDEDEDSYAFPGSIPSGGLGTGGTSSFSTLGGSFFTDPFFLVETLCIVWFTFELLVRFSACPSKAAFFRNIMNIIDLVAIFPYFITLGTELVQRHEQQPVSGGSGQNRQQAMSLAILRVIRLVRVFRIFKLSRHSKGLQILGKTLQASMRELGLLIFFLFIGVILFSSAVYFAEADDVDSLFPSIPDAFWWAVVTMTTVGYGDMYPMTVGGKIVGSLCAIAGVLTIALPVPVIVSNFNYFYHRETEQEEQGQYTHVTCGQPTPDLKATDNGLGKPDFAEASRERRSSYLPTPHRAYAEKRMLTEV
# Description: as §1, §2
# [1] = molecular target: T4, Kv 1.3 in plasma membranes from Jurkat cells (Homo sapiens, UniProt P22001); assay: [125I]ChTX binding to plasma membranes from Jurkat cells
# T4 construct: plasma membranes prepared from Jurkat cells, a human T-cell leukemia line; endogenous in cells; host or cells: Jurkat cells (plasma membranes)
# T4 sequence (P22001 whole entry): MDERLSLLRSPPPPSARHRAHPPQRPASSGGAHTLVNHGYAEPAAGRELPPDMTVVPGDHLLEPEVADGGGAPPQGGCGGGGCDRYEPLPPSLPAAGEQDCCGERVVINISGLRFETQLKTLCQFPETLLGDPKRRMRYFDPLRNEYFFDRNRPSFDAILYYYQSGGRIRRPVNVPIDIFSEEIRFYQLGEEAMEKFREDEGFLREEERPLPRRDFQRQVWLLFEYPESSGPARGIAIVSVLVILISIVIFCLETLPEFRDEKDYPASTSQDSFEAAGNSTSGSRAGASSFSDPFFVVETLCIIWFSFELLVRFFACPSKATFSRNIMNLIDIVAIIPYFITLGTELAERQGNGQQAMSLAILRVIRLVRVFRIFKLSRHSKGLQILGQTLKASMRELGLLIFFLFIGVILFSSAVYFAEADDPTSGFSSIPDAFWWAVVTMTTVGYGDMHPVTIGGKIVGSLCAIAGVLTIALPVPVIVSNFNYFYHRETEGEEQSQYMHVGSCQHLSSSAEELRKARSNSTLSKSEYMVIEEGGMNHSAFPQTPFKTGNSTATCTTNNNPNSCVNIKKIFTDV
# Description: In addition to being tested for competition for [^125 I]ChTX binding to rat brain and bovine aortic smooth muscle, MgTX was evaluated for its effects on [^125 I]ChTX binding to human T lymphocytes and to plasma membranes prepared from Jurkat cells, a human T-cell leukemia line. MgTX competition for [^125 I]ChTX binding to human T cells was performed as described by Lin, et al., J. Exp. Med. 177, 637-645, 1993. Binding experiments using monocyte-depleted, E-rosetted human T cells were carried out in isotonic sucrose with 5 mM KCl, 5 mM NaCl, 6 mM glucose and 10 mM HEPES, pH 8.0 until equilibrium was achieved. The procedure for binding to plasma membranes from Jurkat Cells is similar except that the binding solution was 3 mM KCl, 7 mM NaCl, 10 mM HEPES, pH 8.0. Free ligand was removed from bound by filtration through Whatman GF/C glass fiber filters (pretreated with 0.5% polyethylenimine). […] Hill coefficients were 2 in both cases.
smiles,measurement,setting,value
"CC[C@H](C)[C@H](NC(=O)[C@@H](N)[C@@H](C)O)C(=O)N[C@H](C(=O)N[C@@H](CC(N)=O)C(=O)N[C@H](C(=O)N[C@@H](CCCCN)C(=O)N[C@H]1CSSC[C@@H]2NC(=O)[C@H](CCCCN)NC(=O)[C@H](C)NC(=O)CNC(=O)[C@H](C)NC(=O)[C@H](CO)NC(=O)[C@H](CCC(N)=O)NC(=O)CNC(=O)[C@H](Cc3ccccc3)NC(=O)[C@H](CCC(N)=O)NC(=O)[C@H](C)NC(=O)[C@H](CCCCN)NC(=O)[C@@H]3CSSC[C@@H](C(=O)N[C@@H](Cc4ccc(O)cc4)C(=O)N4CCC[C@H]4C(=O)N[C@@H](Cc4c[nH]cn4)C(=O)O)NC(=O)[C@H](CCCCN)NC(=O)[C@H](CSSC[C@H](NC(=O)[C@H](CCC(N)=O)NC(=O)[C@H](CCCCN)NC(=O)[C@@H]4CCCN4C(=O)[C@H](CO)NC(=O)[C@H]([C@@H](C)O)NC1=O)C(=O)N[C@@H](CC(C)C)C(=O)N1CCC[C@H]1C(=O)N1CCC[C@H]1C(=O)N3)NC(=O)[C@H](CCCCN)NC(=O)CNC(=O)[C@H](CC(N)=O)NC(=O)[C@H](CCSC)NC2=O)C(C)C)[C@@H](C)CC [MgTX, Margatoxin] (HELM PEPTIDE1{T.I.I.N.V.K.C.T.S.P.K.Q.C.L.P.P.C.K.A.Q.F.G.Q.S.A.G.A.K.C.M.N.G.K.C.K.C.Y.P.H}$PEPTIDE1,PEPTIDE1,7:R3-29:R3|PEPTIDE1,PEPTIDE1,13:R3-34:R3|PEPTIDE1,PEPTIDE1,17:R3-36:R3$$$V2.0; N-terminus and C-terminus assumed; bridges inferred)",sensitivity of cloned channel ISK to block,ISK,completely insensitive
same,effect on [125I]ChTX binding to the Maxi-K channel in smooth muscle membranes,Maxi-K channel,no effect
same,IC50,Kv 1.6,5 nM
same,Hill coefficient,[1],2
same,IC50,"[1]; pH 8.0, read-out: IC50 for inhibition of [125I]ChTX binding",2.7 pM
